This is an account of results in patent US20250122192A1, “5-PYRIMIDINECARBOXAMIDE DERIVATIVES AND METHODS OF USING THE SAME” (Rgenta Therapeutics, Inc., priority 2021, published 2025).

What is called IC50 is the midpoint of a concentration-inhibition curve.

This assay relates to PMS1. Put plainly: Mini-gene reporter assay-PMS1. The format is cell-based. As to conditions: Homo sapiens; for IC50: HEK293, PMS1 mini-gene firefly luciferase reporter transiently transfected into HEK293 cells, read-out: PMS1 IC50. The method, boiled down: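 Compound dilution series in duplicate added to transiently transfected HEK293 reporter cells, then incubated; EC50 from Levenberg-Marquardt fit of luminescence. The reporter joins the alternatively skipped exon, its neighbouring introns and exons to firefly luciferase, so induced inclusion gives more signal.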
(In a reporter assay the amount or activity of a reporter protein is the signal.)

In the case of `CCOc1nc(C2CCNC2)ncc1C(=O)Nc1cc(F)c2nc(C)cn2c1` (stereo not shown) [Compound 316, 4-ethoxy-N-8-fluoro-2-methylimidazo[1,2-a]pyridin-6-yl-2-(pyrrolidin-3-yl)-pyrimidine-5-carboxamide], the activation at 5 µM (at 5 μM, PMS1 mini-gene firefly luciferase reporter in HEK293 cells, read-out: PMS1% Effect at 5 μM) is 50 to 75%.

Consider `CCOc1nc(N2CC[C@@H](NC)C2)ncc1C(=O)Nc1ccc2nc(C)cn2n1` [Compound 317], for which the IC50 was above 3000 nM.

With `CCOc1nc(N2CC[C@H](NC)C2)ncc1C(=O)Nc1ccc2nc(C)cn2n1` [Compound 318], the IC50 is above 3000 nM. Consider `CCOc1nc(N2CCC(NC)C2)ncc1C(=O)Nc1ccc2nc(C)cn2n1` (stereo not shown) [Compound 319], for which the IC50 is above 3000 nM.
